Molecules are shown by their SMILES.

The nature of data set [1]: Prodrug stability in human plasma in vitro. It is filed as in vitro ADME. The note with it: 2.0 μM, 37° C.
Protocol: (§1) The stabilities of prodrugs were evaluated in one or more in vitro systems using a variety of tissue preparations following methods known in the art. The chemical stability of prodrugs in aqueous buffers at pH's of 2.0, 7.4 and 8.0 were also measured. […] Each preparation was incubated with test compound at 37° C. for one hour. Aliquots (50 μL) were removed at 0, 30, and 60 min and quenched with 0.1% trifluoroacetic acid in acetonitrile. Samples were then centrifuged and analyzed by LC/MS/MS (see Example 86 below for method details).
Data set [2] can be described thus: Caco-2 homogenate S9 stability. The data set is classed as in vitro ADME. The note with it: Caco-2 S9 (0.5 mg protein per mL), 5 μM, 37° C.
Protocol: Caco-2 Homogenate S9 Stability: Caco-2 cells were grown for 21 days prior to harvesting. Culture medium was removed and cell monolayers were rinsed and scraped off into ice-cold 10 mM sodium phosphate/0.15 M potassium chloride, pH 7.4. Cells were lysed by sonication at 4° C. using a probe sonicator. Lysed cells were then transferred into 1.5 mL centrifuge vials and centrifuged at 9000 g for 20 min at 4° C. The resulting supernatant (Caco-2 cell homogenate S9 fraction) was aliquoted into 0.5 mL vials and stored at −80° C. until used.
For stability studies, prodrug (5 μM) was incubated in Caco-2 homogenate S9 fraction (0.5 mg protein per mL) for 60 min at 37° C. Concentrations of intact prodrug and released baclofen were determined at zero time and 60 minutes using LC/MS/MS.
The test system of data set [3] is pancreatin. Briefly: Pancreatin stability. It is filed as in vitro ADME, porcine. As to conditions: 1% (w/v) pancreatin, 5 μM, pH 7.5, 37° C. The protocol:
Pancreatin Stability: Stability studies were conducted by incubating prodrug (5 μM) with 1% (w/v) pancreatin (Sigma, P-1625, from porcine pancreas) in 0.025 M Tris buffer containing 0.5 M NaCl (pH 7.5) at 37° C. for 60 min. The reaction was stopped by addition of 2 volumes of methanol. After centrifugation at 14,000 rpm for […], the supernatant was removed and analyzed by LC/MS/MS.

Data set [4] is described as follows: Chemical stability of prodrugs in aqueous buffers. It is filed as physicochemical.
Protocol: as §1
The nature of data set [5]: Prodrug stability in human liver S9. The data set is classed as in vitro ADME. The note with it: Human Liver S9 (0.5 mg/mL), 2.0 μM, NADPH, 37° C.
Protocol: as §1
Data set [6] in a line: Prodrug stability in rat liver S9. It is filed as in vitro ADME. As to conditions: Rat Liver S9 (0.5 mg/mL), 2.0 μM, NADPH, 37° C.
Protocol: as §1

For the compound `CCC[C@H](OC(=O)NC[C@H](CC(=O)[O-])c1ccc(Cl)cc1)OC(=O)C(C)C.[Na+]` [(91), Sodium 4-{[(1S)-Isobutanoyloxybutoxy]carbonylamino}-(3R)-(4-chlorophenyl)-butanoate], the “% of Baclofen Released after 60 min” value in data set [1] is listed as 2%; in data set [3], 78%; in data set [4] (aqueous buffer pH 2.0, 37° C.), 0%; in data set [4] (aqueous buffer pH 7.4, 37° C.) it was 0%; in data set [4] (aqueous buffer pH 8.0, 37° C.), 1%. Also, the “% of Prodrug Remaining after 60 min” value worked out at 6% in data set [2] and 1% in data set [5].
Turning to `O=C([O-])C[C@@H](CNC(=O)OCOC(=O)C1CCCCC1)c1ccc(Cl)cc1.[Na+]` [(14), Sodium 4-[(Cyclohexanecarboxymethoxy)carbonylamino]-(3R)-(4-chlorophenyl)-butanoate], the “% of Prodrug Remaining after 60 min” value came out at 2% in data set [6]; 2% in data set [2]; 2% in data set [3]; 102% in data set [4] (aqueous buffer pH 8.0, 37° C.); 2% in data set [5]. In addition, the “% of Baclofen Released after 60 min” value in data set [4] (aqueous buffer pH 2.0, 37° C.) is 1%; in data set [4] (aqueous buffer pH 7.4, 37° C.) it was 1%; in data set [4] (aqueous buffer pH 8.0, 37° C.), 2%.
Take `CC(=O)OCOC(=O)NC[C@H](CC(=O)[O-])c1ccc(Cl)cc1.[Na+]` [(10), Sodium 4-[(Acetoxymethoxy)carbonylamino]-(3R)-(4-chlorophenyl)-butanoate]: the “% of Prodrug Remaining after 60 min” value in data set [6] was found to be 0%; in data set [2], 2%; in data set [5], 1%. For the same compound, the “% of Baclofen Released after 60 min” value in data set [4] (aqueous buffer pH 2.0, 37° C.) was found to be 1%; in data set [4] (aqueous buffer pH 7.4, 37° C.), 3%; in data set [4] (aqueous buffer pH 8.0, 37° C.), 9%.
With `CC(C)C(=O)O[C@@H](OC(=O)NC[C@H](CC(=O)O)c1ccc(Cl)cc1)C(C)C` [(104)], the “% of Prodrug Remaining after 60 min” value in data set [6] came out at 3%; in data set [3], 90%; in data set [4] (aqueous buffer pH 7.4, 37° C.), 100%; in data set [4] (aqueous buffer pH 8.0, 37° C.), 100%; in data set [5] it was 3%. Besides, the “% of Baclofen Released after 60 min” value in data set [1] is 2%; in data set [3], 6%; in data set [4] (aqueous buffer pH 2.0, 37° C.) it was 0%; in data set [4] (aqueous buffer pH 7.4, 37° C.), 0%; in data set [4] (aqueous buffer pH 8.0, 37° C.) it was 0%; in data set [5], 97%.
`CC(C)C(=O)O[C@@H](OC(=O)NC[C@H](CC(=O)[O-])c1ccc(Cl)cc1)C(C)C.[Na+]` [(92), Sodium 4-{[(1S)-Isobutanoyloxyisobutoxy]carbonylamino}-(3R)-(4-chlorophenyl)-butanoate]: the “% of Prodrug Remaining after 60 min” value in data set [6] turned out to be 6%; in data set [5], 4%. Also, the “% of Baclofen Released after 60 min” value amounted to 1% in data set [1]; 7% in data set [3]; 0% in data set [4] (aqueous buffer pH 2.0, 37° C.); 0% in data set [4] (aqueous buffer pH 7.4, 37° C.); 1% in data set [4] (aqueous buffer pH 8.0, 37° C.); 80% in data set [5].
Turning to `CC(=O)OC(OC(=O)NC[C@H](CC(=O)[O-])c1ccc(Cl)cc1)C(C)C.[Na+]` (stereo partly drawn) [(23), Sodium 4-[(1-Acetoxyisobutoxy)carbonylamino]-(3R)-(4-chlorophenyl)-butanoate], the “% of Prodrug Remaining after 60 min” value in data set [6] is 3%; in data set [4] (aqueous buffer pH 2.0, 37° C.), 107%; in data set [5] it was 4%. Besides, the “% of Baclofen Released after 60 min” value is given as 3% in data set [1]; 0% in data set [4] (aqueous buffer pH 2.0, 37° C.); 1% in data set [4] (aqueous buffer pH 7.4, 37° C.); 2% in data set [4] (aqueous buffer pH 8.0, 37° C.).
With `CC(OC(=O)NC[C@H](CC(=O)[O-])c1ccc(Cl)cc1)OC(=O)c1ccccc1.[Na+]` (stereo partly drawn) [(40), Sodium 4-[(1-Benzoyloxyethoxy)carbonylamino]-(3R)-(4-chlorophenyl)-butanoate], the “% of Prodrug Remaining after 60 min” value in data set [6] was found to be 8%; in data set [5] it was 1%. Also, the “% of Baclofen Released after 60 min” value in data set [1] was 2%; in data set [4] (aqueous buffer pH 2.0, 37° C.) it was 0%; in data set [4] (aqueous buffer pH 7.4, 37° C.), 0%; in data set [4] (aqueous buffer pH 8.0, 37° C.) it was 2%.
For the compound `CC(OC(=O)NC[C@H](CC(=O)[O-])c1ccc(Cl)cc1)OC(=O)C(C)C.[Na+]` (stereo partly drawn) [(33), Sodium 4-[(1-Isobutanoyloxyethoxy)carbonylamino]-(3R)-(4-chlorophenyl)-butanoate], the “% of Baclofen Released after 60 min” value in data set [6] turned out to be 101%; in data set [1], 4%; in data set [4] (aqueous buffer pH 2.0, 37° C.) it was 0%; in data set [4] (aqueous buffer pH 7.4, 37° C.) it was 0%; in data set [4] (aqueous buffer pH 8.0, 37° C.), 0%; in data set [5], 101%. The “% of Prodrug Remaining after 60 min” value amounted to 4% in data set [6], 3% in data set [2] and 3% in data set [5].
As for `O=C([O-])C[C@@H](CNC(=O)OCOC(=O)c1cccs1)c1ccc(Cl)cc1.[Na+]` [(57), Sodium 4-[(2-Thienylcarbonyloxymethoxy)carbonylamino]-(3R)-(4-chlorophenyl)-butanoate], the “% of Prodrug Remaining after 60 min” value in data set [6] was determined as 2%; in data set [2] it was 2%; in data set [4] (aqueous buffer pH 7.4, 37° C.) it was 100%; in data set [4] (aqueous buffer pH 8.0, 37° C.) it was 100%; in data set [5], 1%. The “% of Baclofen Released after 60 min” value is on record as 0% in data set [4] (aqueous buffer pH 2.0, 37° C.); 0% in data set [4] (aqueous buffer pH 7.4, 37° C.); 0% in data set [4] (aqueous buffer pH 8.0, 37° C.).
Take `CCCC(=O)OC(OC(=O)NC[C@H](CC(=O)[O-])c1ccc(Cl)cc1)C(C)C.[Na+]` (stereo partly drawn) [(27), Sodium 4-[(1-Butanoyloxyisobutoxy)carbonylamino]-(3R)-(4-chlorophenyl)-butanoate]: the “% of Prodrug Remaining after 60 min” value in data set [6] stood at 0%; in data set [5] it was 8%. Moreover, the “% of Baclofen Released after 60 min” value in data set [1] was found to be 12%; in data set [3] it was 9%; in data set [4] (aqueous buffer pH 2.0, 37° C.), 0%; in data set [4] (aqueous buffer pH 7.4, 37° C.), 0%; in data set [4] (aqueous buffer pH 8.0, 37° C.), 1%.
Take `CCOC(C)(OCC)C(=O)OCOC(=O)NC[C@H](CC(=O)[O-])c1ccc(Cl)cc1.[Na+]` [(51), Sodium 4-[(2,2-Diethoxypropanoyloxymethoxy)carbonylamino]-(3R)-(4-chlorophenyl)-butanoate]: the “% of Prodrug Remaining after 60 min” value worked out at 2% in data set [6], 3% in data set [2] and 6% in data set [5]. Also, the “% of Baclofen Released after 60 min” value in data set [2] worked out at 100%; in data set [3] it was 50%; in data set [4] (aqueous buffer pH 2.0, 37° C.), 0%; in data set [4] (aqueous buffer pH 7.4, 37° C.) it was 2%; in data set [4] (aqueous buffer pH 8.0, 37° C.) it was 9%; in data set [5] it was 91%.
For the compound `CC(C)C(OC(=O)NC[C@H](CC(=O)[O-])c1ccc(Cl)cc1)OC(=O)C(C)(C)C.[Na+]` (stereo partly drawn) [(43), Sodium 4-[(1-Pivaloyloxyisobutoxy)carbonylamino]-(3R)-(4-chlorophenyl)-butanoate], the “% of Prodrug Remaining after 60 min” value in data set [6] was determined as 3%. The “% of Baclofen Released after 60 min” value came to 2% in data set [1]; 4% in data set [3]; 0% in data set [4] (aqueous buffer pH 2.0, 37° C.); 0% in data set [4] (aqueous buffer pH 7.4, 37° C.); 0% in data set [4] (aqueous buffer pH 8.0, 37° C.).
Take `CC(C)C(=O)OC(OC(=O)NC[C@H](CC(=O)[O-])c1ccc(Cl)cc1)C1CCCCC1.[Na+]` (stereo partly drawn) [(84), Sodium 4-[(1-Isobutanoyloxy-1-cyclohexylmethoxy)carbonylamino]-(3R)-(4-chlorophenyl)-butanoate]: the “% of Baclofen Released after 60 min” value was 91% in data set [6]; 4% in data set [1]; 0% in data set [4] (aqueous buffer pH 2.0, 37° C.); 0% in data set [4] (aqueous buffer pH 7.4, 37° C.); 1% in data set [4] (aqueous buffer pH 8.0, 37° C.). Also, the “% of Prodrug Remaining after 60 min” value in data set [6] turned out to be 4%; in data set [5], 2%.
With `O=C([O-])C[C@@H](CNC(=O)OCOC(=O)c1ccccc1)c1ccc(Cl)cc1.[Na+]` [(12), Sodium 4-[(Benzoyloxymethoxy)carbonylamino]-(3R)-(4-chlorophenyl)-butanoate], the “% of Prodrug Remaining after 60 min” value in data set [6] came out at 3%; in data set [2], 2%; in data set [4] (aqueous buffer pH 2.0, 37° C.), 100%; in data set [4] (aqueous buffer pH 7.4, 37° C.), 100%; in data set [5] it was 1%. The “% of Baclofen Released after 60 min” value in data set [1] came to 5%; in data set [2], 100%; in data set [4] (aqueous buffer pH 2.0, 37° C.), 0%; in data set [4] (aqueous buffer pH 7.4, 37° C.), 0%; in data set [4] (aqueous buffer pH 8.0, 37° C.), 0%; in data set [5], 100%.

The values are drawn from patent publication US10385014B2, “Acyloxyalkyl carbamate prodrugs, methods of synthesis and use” (ARBOR PHARMACEUTICALS, LLC, priority 2003, dated 2019).
